Laboratory results as given in patent US20080132568A1, “COMPOUNDS WITH ANTI-ANDROGENIC ACTIVITY AND THE USE THEREOF” (priority 2006, published 2008).
“Also recorded” adds a separate entry of the source.

Assays:
Format in all cases: cell-based, human
[1] = tested on: androgen-sensitive MMTV promoter; test: Promoter activation assay (MMTV/luciferase) in LNCaP; conditions: 30 μM, 48 hours
Procedure: Promoter activation assay: LNCaP and LAPC4 prostate carcinoma cell lines were cultured in 12- or 24-well cell culture plates (Costar) in DMEM/CSS 2 to 3 days before transfection. Androgen-induced transcriptional activation was determined using a reporter construct with an MMTV promoter that regulates the expression of luciferase (Thompson T A et al., In Vitro Cell. Dev. Biol. 1993, 29A:165-170). LNCaP cells were transfected using the calcium phosphate precipitation method with an MMTV/luciferase plasmid. LAPC4 cells were transfected with an MMTV/luciferase plasmid using the FuGENE 6 Transfection Reagent (Roche Applied Science), according to the manufacturer's instructions. Twenty-four hours after transfection, cells were treated with R1881 with or without test reagents at the specified concentrations. Cell extracts were acquired 24 to 48 hours after treatment in 100 μL of Cell Culture Lysis Reagent (Promega, Madison, Wis.). Luciferase activity was measured using the Luciferase Assay Substrate (Promega, Madison, Wis.) according to instructions and read on a TD-20/20 Luminometer (Turner Designs, Sunnyvale, Calif.).

[2] = tested on: LAPC4 prostate cancer cells; test: CyQUANT cell proliferation assay, LAPC4; conditions: 10 to 50 μM, 4 days
Procedure: (§1) Cell culture and treatment protocols: The LNCaP prostate cancer cells used in these studies were acquired from American Type Culture Collection (Manassas, Va.). All cell lines were maintained in Dulbecco's modified Eagle's medium (DMEM; Invitrogen, Carlsbad, Calif.) containing 5% heat-inactivated fetal calf serum (FCS; Sigma, St. Louis, Mo.) with streptomycin-penicillin antibiotics (designated DMEM/FCS) in a 5% CO2 incubator at 37° C. LAPC4 prostate cancer cells adapted to growth in DMEM and 5% FCS were acquired from George Wilding (University of Wisconsin Paul P. Carbone Comprehensive Cancer Center). For experiments evaluating androgenic responses, cells were cultured in DMEM containing 4% charcoal-stripped FCS and 1% unstripped FCS (designated DMEM/CSS). […]
(§2) Cell proliferation and viability assays: Cell numbers were determined using a hemacytometer. Relative cell growth changes were determined using cells plated in 96-well tissue culture plates using the CyQUANT NF Cell Proliferation Assay Kit (Invitrogen) according to manufacturer's instructions. Cell viability was measured using trypan blue exclusion and quantified using light microscopy and hemacytometry. Additionally, cell viability was measured by propidium iodide exclusion using flow cytometry (FACScan; BD Biosciences, San Jose, Calif.) after VE and ATQ treatment.

[3] = tested on: LNCaP cells; test: LNCaP viability by propidium iodide exclusion and flow cytometry; conditions: 30 μM, 4 days
Procedure: as §1, §2

[4] = tested on: AR mRNA; test: AR mRNA expression by qPCR, LNCaP; conditions: 4 days
Procedure: (§3) Messenger RNA expression analysis: Total RNA was extracted from cells using TRIzol Reagent (Invitrogen, Carlsbad, Calif.) and cDNA was prepared from total RNA using the High Capacity cDNA Reverse Transcription Kit (Applied Biosystems, Foster City, Calif.). Quantititive PCR was performed for AR expression using an Applied Biosystems 7900HT Fast Real-Time PCR System (Carlsbad, Calif.) and QuantiTect Primers Assays (Qiagen Inc., Valencia, Calif.) for AR and GAPDH mRNA.

[5] = tested on: AR mRNA; test: AR mRNA expression by qPCR, LAPC4; conditions: for AR mRNA levels (qPCR): LAPC4, 4 days
Procedure: as §3

[6] = tested on: PSA; test: Prostate specific antigen analysis, LNCaP medium; conditions: for R1881-induced PSA release / PSA levels in medium: 10 to 40 μM
Procedure: Prostate specific antigen analysis: LNCaP cells were cultured in 96-well plates (Costar) at 5,000 cells per well in DMEM/CSS 1 day before treatment. Forty-eight hours after treatment, media levels of PSA released from LNCaP cells were measured using a PSA Enzyme Immunoassay Test Kit (BioCheck, Inc., Foster City, Calif.) according to manufacturer's instructions supplied with the kit. PSA levels were normalized to cell numbers as determined using the CyQUANT NF Cell Proliferation Assay Kit (Invitrogen), as described previously.

[7] = tested on: PC3 prostate cancer cell line; test: Growth of androgen-independent PC3 cells; conditions: 4 days, data not shown
Procedure: as §2

[8] = tested on: AR protein; test: Immunoblot analysis of AR protein, LNCaP; conditions: 4 days
Procedure: (§4) Immunoblot analysis: LNCaP or LAPC4 prostate cancer cells were plated at a density of 1×10^6 cells per 100 mm cell culture plate in 10 ml of DMEM/CSS and maintained in incubators at 37° C. in 5% CO2. […] Cell extracts were stored at −80° C. until analysis. Total protein (25 μg) from cell extracts were electrophoresed on 7.5% SDS-polyacrylamide gels and transferred to Immobilon-P membranes (Millipore Corp., Bedford, Mass.) using a GENIE wet transfer system (Idea Scientific, Minneapolis, Minn.). Membranes were blocked in Tris-buffered saline containing 5% nonfat dry milk and then incubated with mouse anti-AR (441) monoclonal antibody (Santa Cruz Biotechnology, Santa Cruz, Calif.) or mouse anti-actin antibody (A5441; Sigma). After washing, membranes were incubated with a secondary horseradish peroxidase-conjugated goat anti-mouse IgG (Biomeda, Foster City, Calif.) and analyzed using Western Lightening Chemiluminescence Reagent Plus (Boston, Mass.) on a Kodak Image Station 4000MM (Rochester, N.Y.). Band intensities were determined using Kodak Molecular Imaging Software.

[9] = tested on: AR protein; test: Immunoblot analysis of AR protein, LAPC4
Procedure: as §4

[10] = tested on: LNCaP prostate cancer cells; test: CyQUANT cell proliferation assay, LNCaP; conditions: 10 to 50 μM, 4 days
Procedure: as §1, §2

SMILES | Androgen-induced (R1881) MMTV promoter luciferase activity [1] | LAPC4 cell growth (CyQUANT) [2] | Cell viability [3] | AR mRNA levels (qPCR) [4] | AR mRNA levels (qPCR) [5] | R1881-induced PSA release / PSA levels in medium [6] | PC3 cell growth [7] | decrease in AR mRNA levels ([4]; 30 μM) | decrease in AR mRNA levels ([5]; LAPC4, 30 μM, 4 days) | reduction in AR protein levels ([8]; 30 μM) | AR protein levels [8] | reduction in AR protein levels ([9]; LAPC4, 25 μM, 4 days) | AR protein levels ([9]; LAPC4, 4 days) | LNCaP cell growth (relative growth, CyQUANT) [10] | reduction in R1881-induced PSA release compared to untreated control cells ([6]; 10 μM) | decrease in PSA release compared to untreated controls ([6]; 40 μM)
Cc1c(C)c2c(c(C)c1O)CCC(C)(CCCC(C)CCCC(C)CCCC(C)C)O2 (racemic) [VE, dl-α-tocopherol, reference compound] | significantly increased | modest, but significant, decrease; also recorded: decreased slightly; also recorded: much less effective | did not affect | did not affect | did not affect | did not affect; also recorded: remained unchanged | neither ATQ nor VE decreased the growth | – | – | – | – | – | – | – | – | –
CC1=C(C)C(=O)C(CC[C@](C)(O)CCC[C@H](C)CCC[C@H](C)CCCC(C)C)=C(C)C1=O [ATQ, α-tocopherylquinone] | inhibit; also recorded: significantly reduced | dose-dependent decrease; also recorded: significantly decreased | significantly decreased | reduced levels | reduced levels | significantly reduced; also recorded: inhibited | neither ATQ nor VE decreased the growth | 2 fold | 2 fold | 4 fold | decreased | 4 fold | decreased | dose-dependent decrease; also recorded: significantly decreased | 50% | 4 fold
